Source: the supplement of paper PMC10307832

Columns and labels:
Ibrutinib = compound: C=CC(=O)N1CCC[C@@H](n2nc(-c3ccc(Oc4ccccc4)cc3)c3c(N)ncnc32)C1 [Ibrutinib]; assay: relative viability (nuclei count vs DMSO), 5 days (fraction); higher = more cells survive
How it was run: (§1)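 Nuclei counted with MetaXpress define viability as the ratio of treated to vehicle wells, given as a median across plates. The lung cancer cell lines were in 1536-well plates, pinned with five √10-spaced library-drug doses and imaged at 4× after 5 days and Hoechst staining. Plates passed with control CV below 25% and at least one doubling.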

BMX-IN-1 = compound: C=CC(=O)Nc1cc(-n2c(=O)ccc3cnc4ccc(-c5ccc(NS(C)(=O)=O)cc5)cc4c32)ccc1C [BMX-IN-1]; assay: as above
How it was run: as §1

Cell Line | relative viability (Ibrutinib; 0.005 µM) | relative viability (Ibrutinib; 0.01581 µM) | relative viability (Ibrutinib; 0.05 µM) | relative viability (Ibrutinib; 0.1581 µM) | relative viability (Ibrutinib; 0.5 µM) | relative viability (BMX-IN-1; 0.02 µM) | relative viability (BMX-IN-1; 0.2 µM) | relative viability (BMX-IN-1; 0.6325 µM) | relative viability (BMX-IN-1; 2 µM)
NCI-H460 | 1.07 | 0.922 | 0.979 | 0.917 | 1.02 | 1.24 | 1.09 | 1.04 | 1.07
NCI-H358 | 0.637 | 0.713 | 0.611 | 0.786 | 0.47 | 1.12 | 0.962 | 1.04 | 0.914
IA-LM | 0.794 | 1 | 1.06 | 1.05 | 1.04 | 1 | 0.997 | 1.04 | 1.02
NCI-H596 | 0.74 | 0.965 | 0.939 | 0.837 | 0.858 | 1.12 | 0.951 | 1.02 | 0.96
NCI-H322M | 0.801 | 0.811 | 0.843 | 0.666 | 0.671 | 1.07 | 0.905 | 0.967 | 0.943
H3255 | 0.912 | 0.858 | 0.745 | 0.945 | 0.547 | 1.08 | 0.974 | 1.12 | 1.02
NCI-H1299 | 1.02 | 1.01 | 1.05 | 1.01 | 1.05 | 1.09 | 1.08 | 1.07 | 1.06
COR-L23 | 1.09 | 0.967 | 1.03 | 1.03 | 1.18 | 1.35 | 1.16 | 1.17 | 1.07
NCI-H2126 | 0.68 | 0.969 | 0.972 | 0.9 | 0.887 | 1.09 | 1.05 | 1.08 | 1.02
NCI-H1993 | 0.617 | 0.822 | – | 0.733 | 0.61 | 1.01 | 1.09 | 0.973 | 0.882
NCI-H1915 | 0.96 | 0.971 | 1.01 | 0.978 | 1.05 | 1.08 | 1.06 | 1.07 | 1.08
NCI-H727 | 0.857 | 0.912 | 0.902 | 0.61 | – | 1 | 1.14 | 0.964 | 0.94
NCI-H1734 | 0.849 | 0.922 | 0.952 | 1.03 | 0.999 | 1.06 | 1.06 | 1.11 | 1.02
A-427 | 0.9 | 0.969 | 0.953 | 0.951 | 0.98 | 1.08 | 1.12 | 1.17 | 1.03
NCI-H1648 | 0.758 | 0.751 | 0.676 | 0.792 | 0.63 | 0.937 | 0.878 | 0.792 | 0.829
NCI-H1703 | – | 0.864 | 0.916 | 0.879 | 0.769 | 1.1 | 0.914 | 0.862 | 0.805
NCI-H2170 | 0.678 | 0.85 | 0.803 | 0.939 | 0.462 | 1.14 | 1.05 | 1.05 | 1.02
NCI-H1437 | 0.957 | 0.975 | 0.981 | 0.974 | 1.02 | 1.11 | 0.984 | 1.03 | 1.03
PC-3 [JPC-3] | 1.03 | 0.97 | 0.906 | 0.912 | 0.638 | 1.08 | 1.12 | 1.11 | 1.06

Cell Line | relative viability (Ibrutinib; 0.005 µM) | relative viability (Ibrutinib; 0.01581 µM) | relative viability (Ibrutinib; 0.05 µM) | relative viability (Ibrutinib; 0.1581 µM) | relative viability (Ibrutinib; 0.5 µM) | relative viability (BMX-IN-1; 0.02 µM) | relative viability (BMX-IN-1; 0.2 µM) | relative viability (BMX-IN-1; 0.6325 µM) | relative viability (BMX-IN-1; 2 µM)
NCI-H2342 | 0.655 | 0.875 | 0.888 | 0.842 | 0.823 | 1.04 | 1.03 | 1.06 | 0.939
201T | 0.979 | 0.992 | 0.964 | 0.876 | 0.955 | 1.11 | 0.996 | 1.05 | 1.03
PC-14 | 1.08 | 0.918 | 0.952 | 1.02 | 0.571 | 1.12 | 1.06 | 1.22 | 1
NCI-H1623 | 0.894 | 0.842 | 0.672 | 0.858 | 0.299 | 0.995 | 1.01 | 0.988 | 0.882
RERF-LC-KJ | 1.03 | 0.85 | 0.942 | 0.989 | 0.849 | 1.14 | 1.04 | 1.03 | 1.03
HCC-15 | 1.12 | 1.01 | 1.04 | 0.857 | 1 | 1.11 | 1.1 | 1.11 | 1.13
SW 900 | 0.578 | 0.693 | 0.873 | 0.708 | 0.845 | 0.971 | 0.886 | 0.911 | 1.09
NCI-H1755 | 0.988 | 1.03 | 1.02 | 0.994 | 0.969 | 1.01 | 1.1 | 1.08 | 0.984
NCI-H441 | 1.11 | 0.947 | 1.26 | 1.16 | 1.13 | 1.19 | 1.31 | 1.28 | 1.17
HOP-62 | 1.02 | 0.964 | 0.994 | 0.949 | 1.14 | 1.1 | 1.08 | 1.08 | 1.06
ABC-1 | 0.907 | 0.761 | 0.887 | 0.744 | 0.94 | 1.05 | 1.02 | 1.01 | 1.05
UMC-11 | 0.75 | 0.931 | 1.01 | 0.937 | 0.922 | 1.11 | 1.1 | 1.09 | 1.03
BEN | – | 0.925 | 0.843 | 0.718 | 0.997 | 1.17 | 1.27 | 0.861 | 1.01
ChaGo-K-1 | 0.953 | 0.95 | 0.958 | 0.913 | 1.02 | 1.14 | 1.05 | 0.963 | 1.02
NCI-H520 | 0.874 | 0.791 | 0.991 | 1 | 0.839 | 1.26 | 1.02 | 1.1 | 1.04
SK-LU-1 | 0.944 | 0.954 | 0.987 | 1.02 | – | 1.22 | 1.23 | 1.16 | 1.1
NCI-H2087 | 1.13 | 0.931 | 1.19 | – | 0.99 | 1.03 | 1.14 | 1.14 | 1.15
COR-L 105 | 0.806 | 0.878 | 0.676 | 0.814 | 0.393 | 1.07 | 0.937 | 1.3 | 0.961
